PMC7496508, “Modular Medical Imaging Agents Based on Azide–Alkyne Huisgen Cycloadditions: Synthesis and Pre‐Clinical Evaluation of ^18F‐Labeled PSMA‐Tracers for Prostate Cancer Imaging” (Chemistry (Weinheim an Der Bergstrasse, Germany), 2020)
Several values for one entry are separate records, joined by “and”; a condition that tells them apart may be missing. Equal values may be shown once.

Tests used:
[1] = radiotracer stability in formulation, radio-HPLC; format: physicochemical; details: 10 % EtOH/PBS, 4 h
Method: Clinical translation requires higher amounts of radioactivity than those manually achievable, which are limited by radiation burden for the radiochemist. Therefore, the synthesis of [^18F]PSMA‐MIC01 was automated on a FlowSafe radiosynthesis module, a continuous‐flow microfluidics platform (see Supporting Information for details). [^18F]PSMA‐MIC01 was produced in an overall RCY of 21 % with an overall production time of 139 min (see Supporting Information for experimental details). The higher RCY can be explained by the use of the microfluidic set up for the [^18F]fluorination towards intermediate [^18F]9. Microfluidic systems have a higher surface‐to‐volume ratio which results in an increased heat transfer capacity compared to in‐batch syntheses.62 This enabled reduction of the effective reaction time of the [^18F]fluorination to 75 s with concomitant reduction of ^18F‐side‐products and increased the intermediary RCY of [^18F]9 to 42 % and overall RCY to 21 %. […] The measured lipophilicity (logD) in n‐octanol/PBS was −3.01±0.22 (see Supporting Information). […]
The stabilities of [18F]PSMA-MIC01 and [18F]PSMA-MIC02 were tested, to ensure the integrity of the tracer in solution. […] After purification and formulation into an injectable solution of 10 % EtOH in PBS, the radiotracer was analysed by HPLC again (B),which was repeated after 2 h (C) and 4 h (D). […]

PC3 (PSMA-) xenografts = experiment: ex vivo organ distribution, PC3 xenograft mice; format: in vivo, Balb/c nude mice; details: dissected after PET scan
Method: All groups were evaluated by visual assessment of the PET image and the percentage injected dose per gram (%ID g^−1).
The animal experiments were all performed according to the ethical guidelines and approved by the local animal welfare committee of the University of Groningen (IvD number 15166-06-001. All animals were caged separately in individually ventilated cages.
7-12 week old immune deficient Balb/c nude mice were inoculated with 200 µL of a 1:1 suspension of medium containing approximately 4 x10^6 LNCaP cells (PSMA positive cells) or 5 x 10^6 PC3 cells (PSMA-negative cells) in RPMI-1640, and Matrigel Basement Membrane Matrix High concentration. The cells were subcutaneously inoculated on the right shoulder.
After 3 to 5 weeks for LNCaP-xenografts, 2-3 weeks for PC3-xenografts or when a tumor size of 1cm3 was reached, the animals were transported to the PET imaging facility. […]
Animals were anesthetized at 5 % isoflurane and maintained under 2 % isoflurane enriched with O2. The dynamic PET scan was started within 5 min after tracer injection with an acquisition time of 90 min. The static scan was performed 60 min after tracer injection with an acquisition time of 30 min.
7.2. Organ distribution and Metabolite analysis.
After sacrificing the animals, the organs were dissected and measured in a γ-counter. The obtained CPM’s were normalized to %ID/g (Table shown in main text). […]
In order to check for the significant differences, we also checked for the Cohen’s d, a measurement to determine the effect size. It is calculated on the following formula:
Cohen′sD = Mean1− Mean2 . […]

[2] = distribution coefficient logD, n-octanol/PBS; format: physicochemical
Method: page 19: Figure S3: HPLC purification of [18F]PSMA-MIC02 (A) and after 4 h (B). 5. Distribution coefficient LogD. […] cup. 100 µL of the formulated final solution of [18F]PSMA-MIC01 or [18F]PSMA-MIC02 was added and vortexed for 1 minute and centrifuged for 5 min at […]. The different layers were separated and 100 µL of each layer were measured on a γ-counter. Based on the counts per minute (CPM) of each fraction, the partition coefficient was measured with the following formula: log(CPMoctanol/CPMPBS). The obtained data are as followed. Table S2. Counts per minute (CPM) of the 3 indidicually measured triplicates of [18F]PSMA-MIC01 of n- octanol and PBS. Octanol (CPM) PBS (CPM) BLK (CPM) LogD Mean SD […] No 1.2 2823.43 2715328.33 93.59 -2.99 […] No 2.3 394.49 640463.84 93.59 -3.21 […] No 3.2 3690.69 2357291.58 50.84 -2.81 No 3.3 5848.38 3956671.48 52.31 -2.83 -3.01 0.22 18 (1 picture or pasted object on this page, not shown here)

Compound: O=C(O)CC[C@H](NC(=O)N[C@@H](CCCCNC(=O)c1ccc(-c2cn(CCOCCOCC[18F])nn2)cc1)C(=O)O)C(=O)O [[^18F]PSMA‐MIC01]
- stability of the radiotracer [1]: No degradation products could be detected
- ex vivo uptake bone (PC3 (PSMA-) xenografts): 0.5±0.2 %ID g^−1
- ex vivo uptake brain (PC3 (PSMA-) xenografts): 0.2±0.1 %ID g^−1
- ex vivo uptake heart (PC3 (PSMA-) xenografts): 1.0±0.6 %ID g^−1
- ex vivo uptake kidney (PC3 (PSMA-) xenografts): 39.8±28.8 %ID g^−1
- ex vivo uptake large intestine (PC3 (PSMA-) xenografts): 1.4±0.5 %ID g^−1
- ex vivo uptake liver (PC3 (PSMA-) xenografts): 9.4±2.9 %ID g^−1
- ex vivo uptake lungs (PC3 (PSMA-) xenografts): 2.1±1.1 %ID g^−1
- ex vivo uptake muscles (PC3 (PSMA-) xenografts): 0.6±0.3 %ID g^−1
- ex vivo uptake pancreas (PC3 (PSMA-) xenografts): 0.8±0.3 %ID g^−1
- ex vivo uptake plasma (PC3 (PSMA-) xenografts): 6.0±3.5 %ID g^−1
- ex vivo uptake salivary glands (PC3 (PSMA-) xenografts): 1.1±0.6 %ID g^−1
- ex vivo uptake small intestine (PC3 (PSMA-) xenografts): 1.3±0.6 %ID g^−1
- ex vivo uptake spleen (PC3 (PSMA-) xenografts): 3.1±1.4 %ID g^−1
- ex vivo uptake stomach (PC3 (PSMA-) xenografts): 1.2±0.6 %ID g^−1
- ex vivo uptake tumor (PC3 (PSMA-) xenografts): 3.0±1.8 %ID g^−1 and 3.0±1.7 %ID g^−1
- ex vivo uptake urine (PC3 (PSMA-) xenografts): 184±260 %ID g^−1
- ex vivo uptake whole blood (PC3 (PSMA-) xenografts): 3.4±1.8 %ID g^−1
- LogD, individual measurements ([2]; n-octanol/PBS pH 7.4, single measurements): -3.03 and -2.99 and -3.02 and -3.27 and -3.20 and -3.21 and -2.72 and -2.81 and -2.83
- logD ([2]; n-octanol/PBS, pH 7.4, n-octanol/PBS pH 7.4, overall mean): -3.01 ± 0.22
